Experimental data: US20240335483A1, “NEW METHOD TO TREAT AUTOIMMUNE DISEASES” (INSTITUT NATIONAL DE LA SANTÉ ET DE LA RECHERCHE MÉDICALE, priority 2021, published 2024)
“Also recorded” adds a separate entry of the source.

Key:
Format in all cases: in vivo, mouse
TLR2 ligands = assay: TLR2 ligand levels in colon extract (HEK-blue TLR reporter cells); conditions: NOD mice, intracolonic CRAMP treatment
Experimental: (§1) Colons from 2-week-old mice were recovered in 100 μL PBS, cut in some pieces and homogenized by vortexing. Cell-free supernatant was recovered after centrifugation at 10 000 g for 10 min. A 100-fold dilution was used to measure TLR2 and TLR4 ligand levels in the supernatants using HEK-blue™ TLR reporter cells ([…], #hkb-mtlr2 and #hkb-mtlr4) according to the manufacturer protocol.

[1] = tested on: IGRP206-214-specific CD8+ T cells; assay: Flow cytometry of diabetogenic IGRP206-214-specific CD8+ T cells; conditions: 12-week-old NOD mice after intracolonic CRAMP as newborns
Experimental: (§2) Pancreata were perfused with a solution of collagenase P in HBSS-1% HEPES (0.75 mg.ml-1, Roche), then dissected free from surrounding tissues. Pancreata were digested at 37° C. for 8 min. Digestion was stopped by adding HBSS-10% FCS-1% EDTA followed by extensive washes. For flow cytometry analysis, islets were isolated on a discontinuous Ficoll® PM400 gradient (Sigma-Aldrich) and then isolated islets were handpicked to exclude contaminations from intrapancreatic lymph nodes. Cells were released from the islets by incubation at 37° C. for 6 min in non-enzymatic cell dissociation solution (Sigma-Aldrich). For RT-qPCR, to avoid potential contamination by exocrine tissue, islets were purified by handpicking in 3 consecutive baths of HBSS-10% FCS supplemented with 1% DNAse 1.
(§3) Single cell suspensions were prepared from various tissues, surface staining was performed after FcγRII/III blocking (anti-CD16/CD32) for 5 min at 4° C. and were surface stained for 30 min at 4° C. Staining buffer was PBS containing 2% FCS, 0.5% EDTA and 0.1% sodium azide. For detection of the subsets of conventional dendritic cells, cells suspension were surface stained with anti-CD45, -TCRβ, -CD19-CD11c, -F4/80, -CD103, -CD11b. […] Stained cells were analyzed on a Becton Dickinson Fortessa flow cytometer. Data were analyzed with Flowjo™ v10 software.

[2] = tested on: inflammatory and regulatory cytokines in colon; assay: Cytokine expression in colon (RT-qPCR)
Experimental: (§4) Total RNA was isolated using the Nucleospin RNA XS kit (Macherey-Nagel) from a minimum of 100 handpicked islets per mouse or using Nucleospin RNA kit (Macherey-Nagel) for colon tissue. RNA was reverse transcribed to synthesized cDNA using the high capacity cDNA reverse transcription kit (ThermoFisher) and measurements were performed by qPCR using Power SYBR® Green (ThermoFisher) on a 7900HT Fast System (Applied Biosystems). Resulting levels of fluorescence were submitted to relative quantification by normalization against a housekeeping gene (GAPDH) and expressed as 2-(ΔCT) values.

type I IFN signature = assay: Colonic type I IFN signature (RNAseq, RT-qPCR)
Experimental: as §4
Colon tissue was recovered from 5 mice from 5 independent cages per group. Total RNA were isolated from colon using the RNeasy Kit (QIAGEN) including a DNAse treatment step. RNA quality was assessed using RNA Screen Tape 6000 Pico LabChips with the Tape Station (Agilent Technologies) and RNA concentration was measured by spectrophometry using the Xpose (Trinean). RNAseq libraries were prepared starting from 1 μg of total RNA using the TruSeq Stranded mRNA LT Sample Prep Kit (Illumina) as recommended by the manufacturer. […] A mean of 23 million of paired-end reads was produced per library sample (between 21 to 25 million of passing filter reads). The generated data were analyzed using the Ingenuity Pathway Analysis software (Qiagen).

TLR4 ligands = assay: TLR4 ligand levels in colon extract (HEK-blue TLR reporter cells); conditions: NOD mice, intracolonic CRAMP treatment
Experimental: as §1

microbiota = assay: 16S rDNA gene sequencing of microbiota composition; conditions: 5 weeks of age, after intracolonic CRAMP in newborn NOD mice
Experimental: Stools were recovered from 5 mice from 5 independent cages per group, and were stored at −80° C. in DNA/RNA Shield™ (Zymo Research, #R1100-250) immediately after emission before shipment to Zymo Research (ZymoBIOMICS Services). For CRAMP treatment experiments, pups from different litters were randomly mixed and then separate before treatment with CRAMP or scCRAMP. The samples were processed and analyzed with the ZymoBIOMICS® Targeted Sequencing Service for Microbiome Analysis (Zymo Research, Irvine, CA). DNA Extraction: One of three different DNA extraction kits was used depending on the sample type and sample volume. In most cases, the ZymoBIOMICS® DNA Miniprep Kit (Zymo Research, Irvine, CA) was used. For low biomass samples, such as skin swabs, the ZymoBIOMICS® DNA Microprep Kit (Zymo Research, Irvine, CA) was used as it permits for a lower elution volume, resulting in more concentrated DNA samples. For a large sample volume, the ZymoBIOMICS@-96 MagBead DNA Kit (Zymo Research, Irvine, CA) was used to extract DNA using an automated platform. Targeted Library Preparation: Bacterial 16S ribosomal RNA gene targeted sequencing was performed using the Quick-16S™ NGS Library Prep Kit (Zymo Research, Irvine, CA). The bacterial 16S primers amplified the V1-V2 or V3-V4 region of the 16S rRNA gene. These primers have been custom-designed by Zymo Research to provide the best coverage of the 16S gene while maintaining high sensitivity. Fungal ITS gene targeted sequencing was performed using the Quick-16S™ NGS Library Prep Kit with custom ITS2 primers substituted for 16S primers. […] The final PCR products were quantified with qPCR fluorescence readings and pooled together based on equal molarity. The final pooled library was cleaned up with the Select-a-Size DNA Clean & Concentrator™ (Zymo Research, Irvine, CA), then quantified with TapeStation®(Agilent Technologies, Santa Clara, CA) and Qubit® (Thermo Fisher Scientific, Waltham, […]). […] Bioinformatics Analysis: Unique amplicon sequences were inferred from raw reads using the DADA2 pipeline. […]

Treg cells = assay: Flow cytometry of regulatory T cells in tissues
Experimental: as §2
Immune cells from the colon were isolated using the Lamina Propria Dissociation Kit from Miltenyi (#130-097-410), combined with gentleMACS™ Octo dissociator with heaters (#130-096-427) according to the manufacturer's instructions.
as §3, with “azide.” for “azide. For detection of the subsets of conventional dendritic cells, cells suspension were surface stained with anti-CD45, -TCRβ, -CD19-CD11c, -F4/80, -CD103, -CD11b.”

NOD mice = assay: Spontaneous diabetes incidence
Experimental: Female NOD, BALB/c, C57BL/6J, C57BL/6J camp−/− in different ages were used, bred and housed in specific pathogen-free conditions. Recombinant mouse CRAMP1-39 and scrambled (sc)CRAMP1-39 were produced under aseptic conditions and provided after endotoxin removal processing (Innovagen). Newborn NOD mice were treated by intra-colonic treatment between 10 and 21 days of age every 3 days with CRAMP or scCRAMP (10 μg in 10 μL/mouse/injection) or vehicle (PBS-1% H2O). For blocking TLR experiments, newborn NOD mice were treated between 7 and 14 days of age every 3 days with TLR2 inhibitor CU CTP22 (25 μg in 10 μL/mouse/injection) or TLR4 inhibitor TAK242 (25 μg in 10 μL/mouse/injection) or with TLR5 inhibitor TH1020 (20 μg in 10 μL/mouse/injection) or with vehicle (PBS 1% DMSO). All inhibitors are from Tocris. For modulating IFNα experiment, newborn NOD mice were treated between 7 and 14 days of age every 3 days with anti-IFNα receptor mAb (200 μg in 10 μL/mouse/injection) (BioXcell) or equivalent amount of isotype control (mouse IgGI) or gardiquimod (50 μg in 10 μL/mouse/injection) or vehicle (PBS-1% H2O). For CRAMP-expressing probiotic experiment, pregnant NOD mice were given CRAMP-expressing Lactococcus lactis or conventional L. lactis ([…] colony forming units (cfu) in 100 μL PBS/mice) by oral gavage one day before delivery. For cross-fostering experiments, NOD pups were adopted immediately at birth by recipient mice (C57BL/6, BALB/c, CRAMP-treated NOD mice or NOD mice), that delivered the same day and pups from the two litters were maintained in the same cage. All animal experimental protocols were approved by the ethic committee for animal experimentation (APAFIS #3535-2015092416202090).
NOD mice were treated as described above with CRAMP or scCRAMP, anti-IFNαR mAb, gardiquimod or were born from CRAMP-expressing L. lactis treated NOD mice or were cross-fostered by CRAMP-treated NOD mice. […]
Diabetes incidence was plotted according to the Kaplan-Meier method. […] All data were analyzed using GraphPad Prism v6 software.

| Compound | level of TLR2 ligands in the colon (TLR2 ligands) | frequency and absolute number of IGRP206-214-specific CD8+ effector T cells [1] | cytokine profile in the colon ([2]; CRAMP treatment of adult NOD mice) | expression of inflammatory cytokines in colon ([2]; adult NOD colon after CRAMP treatment of newborn NOD mice) | type I IFN signature in the colon (type I IFN signature; colonic CRAMP treatment of 10-day-old NOD mice) | type I IFN signature in the newborns (type I IFN signature; newborn NOD mice cross-fostered by NOD dams previously treated with CRAMP at 10 days of age) | level of TLR4 ligands in the colon (TLR4 ligands) | abundance of the genera Lactobacillus and Bifidobacterium (microbiota) | abundance of the genus Alistipes (microbiota) | microbiota composition (microbiota; control scCRAMP) | frequency and absolute number of Treg cells (Treg cells; prediabetic 12-week-old NOD mice after intracolonic CRAMP as newborns, pancreas, colon, PLN, MLN, spleen) | development (incidence) of diabetes (NOD mice; female NOD mice, intracolonic CRAMP every 3 days from 10 to 21 days of age, control scCRAMP, FIG. 1A) | incidence of diabetes in adopted NOD mice (NOD mice; newborn NOD mice from untreated dams cross-fostered to NOD dams treated by CRAMP between 10 and 21 days of age, FIG. 1) | frequency of pancreatic LAP+ Treg cells (Treg cells; male NOD mice, intracolonic gardiquimod at 10 days of age, pancreatic islets at 12 weeks of age) | diabetes incidence (NOD mice; gardiquimod, intracolonic, newborn female NOD mice) |
| --- | --- | --- | --- | --- | --- | --- | --- | --- | --- | --- | --- | --- | --- | --- | --- |
| CRAMP | reduced the levels of TLR2 and TLR4 ligands in the colon | decreased in the pancreas and PLN in the adult mice | inefficient at changing the cytokine profile in the colon | prevented the overexpression of inflammatory cytokines in the adult NOD colon | reduced | prevented the aberrant type I IFN signature in the newborns | reduced the levels of TLR2 and TLR4 ligands in the colon | increased abundance | decreased abundance | changed microbiota composition in the adult mice | increased the frequency, but not the absolute number, of Treg cells in the pancreas and colon of adult NOD mice | significantly prevented the development of diabetes | decrease of diabetes development; also recorded: decreased incidence of diabetes in the adopted NOD mice |  |  |
| CCNCc1nc2c(N)nc3ccccc3c2n1CC(C)(C)O [gardiquimod, reference compound] |  |  |  |  |  |  |  |  |  |  |  |  |  | decreased the frequency of pancreatic LAP+ Treg cells in the adult NOD mice | increased |
